In US4720543A, “1a-7-substituted derivatives of mitomycin and uses thereof” (priority 1985, dated 1988):
“Also recorded” adds a separate entry of the source. Read-outs that look alike come from different tables or passages of the source.

Tests used:
Staphylococcus Sp. = experiment: antibiotic activity, bacterial growth inhibition in culture; format: cell-based
Protocol: (§1) Bacteria were grown in a standard growth culture at pH 7.2. After the cultures were incubated at 37° C. overnight and diluted into fresh medium, controls and the test antibiotics dissolved in 0.3% hydroxy propylcellulose (HPC) were added at various concentrations and then reincubated overnight. The measure of antibiotic activity was determined by the amount of bacterial growth inhibition as shown by measurement of the optical density at 660 nm.

Pseudomonas Sp. = experiment: as above; format: cell-based
Protocol: as §1

W3100 (E. coli) = experiment: as above; format: cell-based
Protocol: as §1

P388 leukemia = experiment: murine P388 leukemia antitumor activity; format: in vivo
Protocol: The murine P388 leukemia system, maintained intraperitoneally in female DBA/2 mice, was used to evaluate antitumor activity.
The P388 antileukemic activity of the test compound (M-TAG) was assessed by mean survival days, percentage increased life span or %ILS, and number of survivors after 45 days. The %ILS was calculated as follows:
%ILS=(T-C)/C×100 where T is the mean survival days of the treated mice and C is the mean survival days of the untreated mice

[1] = test system: peripheral leukocyte (WBC); experiment: effects on peripheral leukocyte (WBC) count; format: in vivo, mice; details: LD10-range dose i.p., days 3, 4, 5, 6 and 10
Protocol: Comparative studies were performed with M-TAG and mitomycin C. Drug was dissolved in absolute ethanol, and then adjusted to a final concentration of 8% ethanol-92% sterile water. Blood samples obtained were diluted in 9.98 ml of Isoton (a neutral isotonic buffer solution) and counted in a Coulter counter after lysis with Zapoglobin (an enzyme solution which lyses red blood cells but not white blood cells). WBC counts are expressed as a percentage of values from control mice receiving drug vehicle only.

[2] = human bone marrow CFU-C assay; details: human, bone marrow cells
Protocol: (§2) The human bone marrow CFU-C assay measures human bone marrow cells committed to granulocyte-macrophage differentiation. This in vitro assay serves as a model for predicting the relative toxicity of an experimental drug on the granulocytic series of the bone marrow. […] Both drugs were dissolved in 0.5% DMSO, and nucleated human bone marrow cells were exposed in vitro (for 90 minutes at 37° C.) to varying concentrations of each drug. The cells were then plated in triplicate in 3% agar for the CFU-C assay, using GCT, (Giant Cell Tumor) extract (Gibco, Grand Island, N.Y.) as colony-stimulating factor.

human bone marrow cells = experiment: human bone marrow CFU-C assay
Protocol: as §2

E. coli WP2s (λ) = details: for Induction of prophage, PFU/DISH: 24 hours
Ehrlich ascites = experiment: murine Ehrlich ascites antitumor activity; format: in vivo
Protocol: The antitumor activity of M-TAG for the murine Ehrlich ascities tumor was also determined. Ehrlich ascites was maintained i.p. in female BALB/C mice. For antitumor studies, 1×10^7 Ehrlich ascites cells (in 0.10 ml) were implanted i.p. in male BD2F1 mice. Drug was administered i.p. (single LD10 dose) one day after tumor implantation.

[3] = approximate LD10 dose (M-TAG 250 mg/kg; mitomycin C 4 mg/kg), day one

CO[C@@]12[C@H](COC(N)=O)C3=C(C(=O)C(C)=C(N)C3=O)N1C[C@H]1[C@@H]2N1C(=S)N[C@@H]1O[C@H](COC(C)=O)[C@@H](OC(C)=O)[C@H](OC(C)=O)[C@H]1NC(C)=O [M-TAG, 1a(N-2-acetamido-3,4,6-tri-O-acetyl-2-deoxy-D-glucopyranosylthiocarbamoyl)-mitomycin C]
optical density at 660 nm (figure in parentheses) (Staphylococcus Sp.; 4.0 mcg/ml): 0.018 | optical density at 660 nm (figure in parentheses) (Staphylococcus Sp.; 40 mcg/ml): 0.03 | optical density at 660 nm (figure in parentheses) (Staphylococcus Sp.; 400 mcg/ml): 0.00 | inhibition at 0.04 µg/mL (Staphylococcus Sp.; Staphylococcus, 0.04 mcg/ml, 37° C. overnight, read-out: amount of bacterial growth inhibition (first figure)): 30% | inhibition at 0.4 µg/mL (Staphylococcus Sp.; Staphylococcus, 0.4 mcg/ml, 37° C. overnight, read-out: amount of bacterial growth inhibition (first figure)): 95% | inhibition at 4 µg/mL (Staphylococcus Sp.; Staphylococcus, 4.0 mcg/ml, 37° C. overnight, read-out: amount of bacterial growth inhibition (first figure)): 96% | inhibition at 40 µg/mL (Staphylococcus Sp.; Staphylococcus, 40 mcg/ml, 37° C. overnight, read-out: amount of bacterial growth inhibition (first figure)): 94% | inhibition at 400 µg/mL (Staphylococcus Sp.; Staphylococcus, 400 mcg/ml, 37° C. overnight, read-out: amount of bacterial growth inhibition (first figure)): 100% | optical density at 660 nm (figure in parentheses) (Pseudomonas Sp.; 0.04 mcg/ml): 0.52 | optical density at 660 nm (figure in parentheses) (Pseudomonas Sp.; 0.4 mcg/ml): 0.35 | optical density at 660 nm (figure in parentheses) (Pseudomonas Sp.; 4.0 mcg/ml): 0.13 | optical density at 660 nm (figure in parentheses) (Pseudomonas Sp.; 40 mcg/ml): 0.11 | optical density at 660 nm (figure in parentheses) (Pseudomonas Sp.; 400 mcg/ml): 0.11 | inhibition at 0.04 µg/mL (Pseudomonas Sp.; Pseudomonas, 0.04 mcg/ml, 37° C. overnight, read-out: amount of bacterial growth inhibition (first figure)): 30% | inhibition at 0.4 µg/mL (Pseudomonas Sp.; Pseudomonas, 0.4 mcg/ml, 37° C. overnight, read-out: amount of bacterial growth inhibition (first figure)): 45% | inhibition at 4 µg/mL (Pseudomonas Sp.; Pseudomonas, 4.0 mcg/ml, 37° C. overnight, read-out: amount of bacterial growth inhibition (first figure)): 75% | inhibition at 40 µg/mL (Pseudomonas Sp.; Pseudomonas, 40 mcg/ml, 37° C. overnight, read-out: amount of bacterial growth inhibition (first figure)): 75% | inhibition at 400 µg/mL (Pseudomonas Sp.; Pseudomonas, 400 mcg/ml, 37° C. overnight, read-out: amount of bacterial growth inhibition (first figure)): 78% | optical density at 660 nm (figure in parentheses) (W3100 (E. coli); 0.04 mcg/ml): 0.48 | optical density at 660 nm (figure in parentheses) (W3100 (E. coli); 0.4 mcg/ml): 0.51 | optical density at 660 nm (figure in parentheses) (W3100 (E. coli); 4.0 mcg/ml): 0.30 | optical density at 660 nm (figure in parentheses) (W3100 (E. coli); 40 mcg/ml): 0.07 | optical density at 660 nm (figure in parentheses) (W3100 (E. coli); 400 mcg/ml): 0.04 | inhibition at 0.04 µg/mL (W3100 (E. coli); Escherichia coli, 0.04 mcg/ml, 37° C. overnight, read-out: amount of bacterial growth inhibition (first figure)): 33% | inhibition at 0.4 µg/mL (W3100 (E. coli); Escherichia coli, 0.4 mcg/ml, 37° C. overnight, read-out: amount of bacterial growth inhibition (first figure)): 31% | inhibition at 4 µg/mL (W3100 (E. coli); Escherichia coli, 4.0 mcg/ml, 37° C. overnight, read-out: amount of bacterial growth inhibition (first figure)): 50% | inhibition at 40 µg/mL (W3100 (E. coli); Escherichia coli, 40 mcg/ml, 37° C. overnight, read-out: amount of bacterial growth inhibition (first figure)): 86% | inhibition at 400 µg/mL (W3100 (E. coli); Escherichia coli, 400 mcg/ml, 37° C. overnight, read-out: amount of bacterial growth inhibition (first figure)): 92% | overall survivals, M-TAG versus mitomycin C at LD10 dose (in words) (P388 leukemia; LD10 dose): no statistical difference in the overall survivals | % ILS (P388 leukemia; [3]): 85% | Mean Survival (P388 leukemia; [3]): 22 days | antitumor activity against murine P388 leukemia (in words) (P388 leukemia; mouse, in vivo): equivalent to that achieved with the parent mitomycin C | WBC depression / myelotoxicity (in words) [1]: no significant depression in WBC counts at all days tested; also recorded: no significant myelotoxicity as measured by WBC depression | activity at 1.5 h, 100 µM [2]: 66% | activity at 1.5 h, 500 µM [2]: 43% | activity at 1.5 h, 1000 µM [2]: < 20% | bone marrow toxicity compared to parent mitomycin-C (in words) (human bone marrow cells): reduced bone marrow toxicity | maximum increase of phage titer over control (E. coli WP2s (λ)): 50-100% | Induction of prophage, PFU/DISH (E. coli WP2s (λ); 0.005 ug/ml): 148.5 PFU/DISH | Induction of prophage, PFU/DISH (E. coli WP2s (λ); 0.020 ug/ml): 152.5 PFU/DISH | Induction of prophage, PFU/DISH (E. coli WP2s (λ); 0.03125 ug/ml): 591.5 PFU/DISH | Induction of prophage, PFU/DISH (E. coli WP2s (λ); 0.125 ug/ml): 799.5 PFU/DISH | Induction of prophage, PFU/DISH (E. coli WP2s (λ); 0.500 ug/ml): 2535.0 PFU/DISH | Induction of prophage, PFU/DISH (E. coli WP2s (λ); 2.000 ug/ml): 5395.0 PFU/DISH | Induction of prophage, PFU/DISH (E. coli WP2s (λ); 3.125 ug/ml): 3516.5 PFU/DISH | Induction of prophage, PFU/DISH (E. coli WP2s (λ); 12.500 ug/ml): 461.5 PFU/DISH | Induction of prophage, PFU/DISH (E. coli WP2s (λ); 50.000 ug/ml): 169.0 PFU/DISH | Induction of prophage, PFU/DISH (E. coli WP2s (λ); 200.000 ug/ml): 14.5 PFU/DISH | antitumor activity against murine Ehrlich ascites (in words) (Ehrlich ascites; mouse, in vivo): significant antitumor activity | % ILS (Ehrlich ascites; single approximate LD10 dose i.p. (M-TAG 250 mg/kg; mitomycin C 4 mg/kg), one day after implantation): 66% | Mean Survival (Ehrlich ascites; single approximate LD10 dose i.p., 250 mg/kg): 22.8 days
